Source: patent US5106859A, “Certain 1,3,4-thiadiazole derivatives and anti-ulcer agent comprising said derivatives as active ingredient” (Tsumura & Co., priority 1988, dated 1992)

Test system: mucosa of the stomach
Experiment: Anti-ulcer test by oral administration (hydrochloric acid/ethanol-induced stomach mucosa damage)
Type: in vivo, male rats of the Wistar strain
Details: 3 mg/kg orally in 0.5% CMC, 30 minutes before 150 M hydrochloric acid/60% ethanol; male Wistar rats, 8 per group; 1 hour after hydrochloric acid/ethanol
Description: To male rats of the Wistar strain (each group consisting of 8 rats) having a body weight of 160 to 180 g, which had been fasted for 24 hours, was orally administered 3 mg/kg of the compound of formula I in the form of a suspension in a 0.5% solution of carboxymethyl cellulose (CMC), and after 30 minutes, 1 ml/200 of […] hydrochloric acid/60% ethanol was orally administered to the rats. One hour after the administration of the hydrochloric acid/ethanol, the rats were subjected to laparotomy, and the length of the damaged part formed on the mucosa of the stomach was compared, as the mucosa damage coefficient, with that in the control group. Only the 0.5% solution of CMC not containing the compound of formula I was orally administered to the control group. The inhibition ratio was calculated according to the following formula: [formula] wherein A represents the value of the control group and B represents the value of the group to which the compound of formula I was administered.

CCOC(=O)c1ccc(CSc2nnc(-c3cccnc3)s2)nc1 [Example 1, 2-[(5-Ethoxycarbonylpyridin-2-yl)methylthio]-5-(3-pyridyl)-1,3,4-thiadiazole]
Inhibition Ratio (mucosa damage coefficient): 42.9%

CCOC(=O)c1ccc(C[S+]([O-])c2nnc(-c3cccnc3)s2)nc1 (centres unmarked) [Example 2, 2-[(5-Ethoxycarbonylpyridin-2-yl)methylsulfinyl]-5-(3-pyridyl)-1,3,4-thiadiazole]
Inhibition Ratio (mucosa damage coefficient): 91.5%
